Experimental data published in PMC9399681, “Structural insight into ASH1L PHD finger recognizing methylated histone H3K4 and promoting cell growth in prostate cancer” (Frontiers in Oncology, 2022).
Changes are numbered by the printed parent chain.

Columns and labels:
Type in all cases: binding, mASH1L
[1] = biological target: T1, ASH1L PHD W2597A (Mus musculus, UniProt Q99MY8, W2597A); experiment: ITC, ASH1L PHD mutant W2597A; conditions: 1.5 mM H3 (1–15) peptide, 25°C, pH 7.2, 1×PBS, 100-μM ZnCl2
T1 construct: The mASH1L PHD domain (residue 2573–2624); MBP (cleaved yes); made in house; host or cells: Escherichia coli BL21 (DE3)
T1 sequence (Q99MY8 2573-2624 W2597A): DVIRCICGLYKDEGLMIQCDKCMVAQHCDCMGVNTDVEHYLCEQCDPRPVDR
Source text: (§1) The mASH1L PHD domain (residue 2573–2624) was subcloned into a modified pMAL-c5X expression vector (New England Biolabs, Ipswich, MA, US), which contains an MBP tag and a TEV cleavage site. The site-directed mutagenesis of D2573A, I2575A, D2584E, E2585A, M2588A, Q2590E, and W2597A in the PHD domain was generated using the PfuTurbo DNA polymerase (Agilent Technologies) and Dpn I restriction enzyme (New England Biolabs). After the MBP tag was cut by TEV, these proteins were used in ITC and NMR experiments. The His-tagged PHD domain was subcloned into a pGEX-4T1 expression vector. The base vector has a GST tag and was engineered to include a TEV cleavage site before a 5′ 6×His sequence. After the GST tag was cut, this protein was used for the peptide array assay. The His-tagged Bromo-PHD tandem domain (residue 2425–2627) of mASH1L was subcloned into a pNIC-Bsa4 expression vector, which contains a His tag. […]
(§2) The bacteria were grown in Luria Broth (LB) media, supplemented with 100-μM ZnCl2 (all PHD constructs). […] The size and purity of the purified protein were monitored by SDS-PAGE. The PHD protein was concentrated with a filter tube (Millipore, Co. Cork, Ireland) and measured by UV absorbance at 280 nm. […]

[2] = biological target: T2, ASH1L PHD finger (Mus musculus, UniProt Q99MY8); experiment: ITC, ASH1L PHD finger with H3 peptides; conditions: MicroCal iTC200, 25°C, 1×PBS, 100-μM ZnCl2, pH 7.2; 100 µM protein titrated with 3 mM peptide; H3 (1–15) peptides, H3 (2–16) K9me2, H3 (29–43) K36me2
T2 construct: The mASH1L PHD domain (residue 2573–2624); MBP (cleaved yes); made in house; host or cells: Escherichia coli BL21 (DE3)
Protocol: The bacteria were grown in Luria Broth (LB) media, supplemented with 100-μM ZnCl2 (all PHD constructs). All PHD domains were expressed in Escherichia coli BL21 (DE3) cells and induced overnight with 0.5-mM isopropyl-β-D-1-thiogalactopyranoside (IPTG) at 22°C. In addition, the cells were harvested by centrifugation at 4,000 g. The harvested cells with MBP-tagged PHD were resuspended in buffer containing 25-mM Tris, pH 7.2, 1-M NaCl, 20-mM β-mercaptoethanol, 100-μM ZnCl2, and the Complete EDTA-free Protease Inhibitor (Roche, Mannheim, Germany). Following lysis in a microfluidizer (MFIC), cell debris was removed by centrifugation at 12,000 g for 1 h and the supernatant was loaded on a 5-ml MBPTrap HP column (GE Healthcare). The binding protein was eluted with buffer containing 25-mM Tris, pH 7.2, 500-mM NaCl, 20-mM β-mercaptoethanol, 20-mM maltose, and 100-μM ZnCl2. After TEV cleavage, the PHD domain was supplemented with 20-mM DTT and further purified using a Superdex 75 column (GE Healthcare, Uppsala, Sweden) in a final buffer containing 1×PBS, pH 7.2, 100- μM ZnCl2. […] The PHD protein was concentrated with a filter tube (Millipore, Co. Cork, Ireland) and measured by UV absorbance at 280 nm.
ITC assays were carried out on the MicroCal iTC200 System (Malvern) at 25°C while stirring at 750 rpm in the ITC buffer of pH 7.2, consisting of 1×PBS, 100-μM ZnCl2. […] The PHD or tandem Bromo-PHD protein sample of 100 µM was placed in the cell and titrated with 3 mM of a different peptide solution in the ITC buffer using a set of 31 injections of 1.2 μl, following a single initial injection of 0.2 μl. In the ITC measurements of PHD mutant samples, the H3 (1–15) peptides were diluted to the final concentrations of 1.5 mM, titrated with a single initial injection of 0.4 μl and followed with a set of 19 injections of 2 μl. Cumulative enthalpy exchange plots were derived from the raw thermal changes, using one set of a site-fitting model.

[3] = biological target: T3, ASH1L PHD M2588A (Mus musculus, UniProt Q99MY8, M2588A); experiment: ITC, ASH1L PHD mutant M2588A; conditions: 1.5 mM H3 (1–15) peptide, 25°C, pH 7.2, 1×PBS, 100-μM ZnCl2
T3 construct: The mASH1L PHD domain (residue 2573–2624); MBP (cleaved yes); made in house; host or cells: Escherichia coli BL21 (DE3)
T3 sequence (Q99MY8 2573-2624 M2588A): T1 sequence (Q99MY8 2573-2624 W2597A) with M16A, A25W
Source text: as §1, §2

[4] = biological target: T4, ASH1L PHD Q2590E (Mus musculus, UniProt Q99MY8, Q2590E); experiment: ITC, ASH1L PHD mutant Q2590E; conditions: 1.5 mM H3 (1–15) peptide, 25°C, pH 7.2, 1×PBS, 100-μM ZnCl2
T4 construct: The mASH1L PHD domain (residue 2573–2624); MBP (cleaved yes); made in house; host or cells: Escherichia coli BL21 (DE3)
T4 sequence (Q99MY8 2573-2624 Q2590E): T1 sequence (Q99MY8 2573-2624 W2597A) with Q18E, A25W
Source text: as §1, §2

[5] = biological target: T2, ASH1L PHD finger; experiment: NMR titration, KD estimation; conditions: 100 μM PHD, peptide 25-2,000 μM, 298 K, 1×PBS, pH 7.2, 100-μM ZnCl2; single-site model; mean ± SEM; H3 (1–15) peptides
Source text: as §1, with “sequence.” for “sequence. After the GST tag was cut, this protein was used for the peptide array assay. The His-tagged Bromo-PHD tandem domain (residue 2425–2627) of mASH1L was subcloned into a pNIC-Bsa4 expression vector, which contains a His tag.”
The bacteria were grown in Luria Broth (LB) media, supplemented with 100-μM ZnCl2 (all PHD constructs). […] The size and purity of the purified protein were monitored by SDS-PAGE. The PHD protein was concentrated with a filter tube (Millipore, Co. Cork, Ireland) and measured by UV absorbance at 280 nm.
The ^1H,^15N HSQC spectra of the ^15N-labeled PHD finger were collected at 298 K on a Bruker 800-MHz NMR spectrometer equipped with the z-gradient triple-resonance cryoprobe. The binding was analyzed through monitoring chemical shift perturbations observed in the two-dimensional ^1H,^15N HSQC spectra of PHD finger upon the addition of H3 (aa 1-15) peptides (H3K4me, H3K4me2, H3K4me3). […]

C[C@H](N)C(=O)N[C@@H](CCCNC(=N)N)C(=O)N[C@H](C(=O)N[C@@H](CCCC[N+](C)(C)C)C(=O)N[C@@H](CCC(N)=O)C(=O)N[C@H](C(=O)N[C@@H](C)C(=O)N[C@@H](CCCNC(=N)N)C(=O)N[C@@H](CCCCN)C(=O)N[C@@H](CO)C(=O)N[C@H](C(=O)NCC(=O)NCC(=O)N[C@@H](CCCCN)C(=O)N[C@@H](C)C(=O)O)[C@@H](C)O)[C@@H](C)O)[C@@H](C)O [H3K4me3]
Kd [1]: > 200 µM | Kd [2]: 64 ± 4 µM | Kd [3]: > 200 µM | Kd [4]: 33 ± 8 µM | Kd [5]: 106 ± 6 µM
